Where two headings read alike, the source gives them in different places.
Assays:
HeLa cells = assay: Sensitizing of HeLa cells to topotecan by Tdp1 inhibitors; type: cell-based, human; details: for HeLa CC50 of topotecan with Tdp1 inhibitor: human, 3 days, 5 µM
Procedure: (§1) The potential for sensitizing the cancer cell lines to topotecan using the Tdp1 inhibitors was investigated using the MTT assay. Neutralizing the enzymatic activity of Tdp1 by blocking access to its catalytic site using a small molecule should sensitize the cytotoxic potential of topotecan, since the complex of Top1 with DNA cannot be unraveled. […] Nontoxic concentrations of the adamantane derivatives (5 μM) were used for the HeLa cell line; the dose response for topotecan was measured and the corresponding CC50 values were derived, and the results are shown in Figure 4 for 20c and in Table 2 for all the derivatives.
(§2) For HeLa cells, increased cytotoxicity was seen when the adamantanes and topotecan were combined. […] The combination index (CI) for different concentrations of topotecan and 20c at 5 μM was in the range 0.49–0.82, and at 10 μM of 20c, it was 0.23–0.78. This indicates a synergistic effect of topotecan and 20c. The CI values were calculated with the CompuSyn version 1.0 software. For the HCT-116 cells, the synergistic effects of the compounds were different than for the HeLa cells. […] The CI plot at a different fraction affected (Fa) was determined for topotecan (5, 15, 150, 500 and 1500 nM) and 20g (1, 3, 10, 20 μM). The CI values for most of the combinations correspond to a synergistic effect (CI < 1, see Figure S3 in the Supplementary Materials).
(§3) The human cervical cancer HeLa cells were grown in Iscove’s modified Dulbecco’s medium (IMDM) with 40 μg/mL gentamicin, 50 IU/mL penicillin, 50 μg/mL streptomycin (MP Biomedicals), and 10% of fetal bovine serum (Biolot) in a 5% CO2 atmosphere. Human colon adenocarcinoma HCT-116, rectum adenocarcinoma SW837, and human embryo kidney HEK293A cell lines were cultured in DMEM medium (Invitrogen) supplemented with 10% fetal bovine serum (FBS) (Invitrogen), penicillin (100 units/mL), and streptomycin (100 μg/mL), at 37 °C, 5% CO2 in a humid atmosphere. After the formation of a 30–50% monolayer, the tested compounds were added to the medium. The volume of the added reagents was 1/100 of the total volume of the culture medium, and the amount of DMSO was 1% of the final volume. Control cells were grown in the presence of 1% DMSO. The cell culture was monitored for 3 days.
(§4) The cytotoxicity of the compounds to HeLa and HEK293A cell lines was examined using the EZ4U Cell Proliferation and Cytotoxicity Assay (Biomedica, Austria), according to the manufacturer’s protocols.

[1] = Cytotoxicity, MTT test, HCT-116; type: cell-based; details: human, HCT-116 cells; colorectal HCT-116, 72 h MTT
Procedure: (§5) The cytotoxicity of compounds was investigated using HeLa (cervical cancer), SW837 and HCT-116 (colon cancers) cell lines, and the results are shown in Table 1 and Figure S2 in the Supplementary Materials. […] In general, the HeLa cell line was less sensitive to the inhibitors than the HCT-116 and SW837 cells.
as §3
(§6) The medium was removed, and the dark blue crystals of formazan were dissolved in 100 μL of isopropanol. The absorbance at 570 nm (peak) and 620 nm (baseline) was determined using a microplate reader Multiscan FC (Thermo Fisher Scientific Corporation). All concentrations were performed in triplicate. The values are given as mean ± standard deviation (S.D.) values, and all measurements were repeated three times.

[2] = Cytotoxicity, MTT test, SW837; type: cell-based; details: human, SW837 cells; colorectal SW837, 72 h MTT
Procedure: as §5, §3, §6

Tdp1 [3] = molecular target: T1, Tdp1 (Homo sapiens, UniProt Q9NUW8); assay: Tdp1 cleavage activity, fluorophore quencher-coupled DNA-biosensor, real-time; type: biochemical; set-up: inferred from the pET 16B vector and Ni-chelating resin purification; made in house; details: recombinant Tdp1 1.5 nM, 50 nM biosensor; read-out: IC50 (Tdp1 activity inhibition at 50%)
Procedure: The recombinant Tdp1 was purified to homogeneity by chromatography on Ni-chelating resin and phosphocellulose P11 as described, using plasmid pET 16B-Tdp1, kindly provided by Dr. K.W. Caldecott (University of Sussex, United Kingdom). Tdp1 activity was detected as described in the work. Briefly, we measured the fluorescence intensity after quencher removal from a fluorophore quencher–coupled DNA oligonucleotide catalyzed by Tdp1. The reaction was carried out at different concentrations of inhibitors. The control samples contained 1% DMSO. The reaction mixtures contained Tdp1 buffer (50 mM Tris-HCl pH 8.0, 50 mM NaCl, and 7 mM β-mercaptoethanol), 50 nM biosensor, and an inhibitor being tested. The reaction was started by the addition of purified Tdp1 (1.5 nM). The biosensor (5′-[FAM] AAC GTC AGGGTC TTC C [BHQ]-3′) was synthesized in the Laboratory of Biomedical Chemistry at the Institute of Chemical Biology and Fundamental Medicine (Novosibirsk, Russia).
The reactions were incubated on a POLARstar OPTIMA fluorimeter (BMG LAB-TECH, GmbH) to measure fluorescence every 55 s (ex. 485 nm/em. 520 nm) during the linear phase (here, data are from minute 0 to minute 8). The values of IC50 were determined using a six-point concentration response curve in a minimum of three independent experiments, and were calculated using MARS Data Analysis 2.0 (BMG LABTECH).

HCT-116 cells = assay: Sensitizing of HCT-116 cells to topotecan by Tdp1 inhibitors; type: cell-based, human; details: for HCT116 CC50 of topotecan with Tdp1 inhibitor: human, 72 h
Procedure: as §1, §2, §3, §6

[4] = Cytotoxicity, EZ4U Cell Proliferation and Cytotoxicity Assay, HeLa; type: cell-based; details: human, HeLa cells, cervical cancer HeLa
Procedure: as §5, §3, §4

Tdp1 [5] = molecular target: T1, Tdp1; set-up: inferred from the pET 16B vector and Ni-chelating resin purification; made in house; details: cited from earlier work

T1 sequence (Q9NUW8 whole entry): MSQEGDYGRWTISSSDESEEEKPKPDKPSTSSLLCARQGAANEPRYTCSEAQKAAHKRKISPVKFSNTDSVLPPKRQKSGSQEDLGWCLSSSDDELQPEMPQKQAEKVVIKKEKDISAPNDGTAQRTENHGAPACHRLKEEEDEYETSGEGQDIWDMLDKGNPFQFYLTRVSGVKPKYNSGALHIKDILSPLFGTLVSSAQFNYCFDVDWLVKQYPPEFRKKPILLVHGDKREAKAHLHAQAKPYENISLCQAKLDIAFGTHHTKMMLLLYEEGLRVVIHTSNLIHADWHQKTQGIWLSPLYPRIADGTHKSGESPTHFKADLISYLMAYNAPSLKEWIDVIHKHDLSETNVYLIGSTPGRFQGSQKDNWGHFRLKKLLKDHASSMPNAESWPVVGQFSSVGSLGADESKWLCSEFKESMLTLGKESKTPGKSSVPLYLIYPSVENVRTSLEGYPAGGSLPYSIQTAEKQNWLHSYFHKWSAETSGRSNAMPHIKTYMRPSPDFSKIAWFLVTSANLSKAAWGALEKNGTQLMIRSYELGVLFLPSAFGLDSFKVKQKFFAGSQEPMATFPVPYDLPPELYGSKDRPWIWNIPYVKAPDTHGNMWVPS

| SMILES | IC50 (Tdp1 [3]) [µM] | HeLa CC50 of topotecan with Tdp1 inhibitor (HeLa cells) [µM] | CC50 at 72 h [1] [µM] | CC50 at 72 h [2] [µM] | CC50 at 3 days [4] [µM] | further results |
| --- | --- | --- | --- | --- | --- | --- |
| CC(C)CCCC(C)CCSc1n[nH]c(C23CC4CC(CC(C4)C2)C3)n1 (stereo not drawn) [20a, 5-(Adamantan-1-yl)-3-((3,7-dimethyloctyl)thio)-1H-1,2,4-triazole] | 0.54 ± 0.09 | 4.5 | 27 ± 6 | 52 ± 6 | 85 ± 23 | HCT116 CC50 of topotecan with Tdp1 inhibitor (HCT-116 cells; 20 µM): 650.0 (20) nM |
| CC(C)=CCC[C@H](C)CCSc1n[nH]c(C23CC4CC(CC(C4)C2)C3)n1 [20b, 5-(Adamantan-1-yl)-3-(((S)-3,7-dimethyloct-6-en-1-yl)thio)-1H-1,2,4-triazole] | 1.5 ± 0.3 |  | > 100 | 41 ± 4 | > 100 | HCT116 CC50 of topotecan with Tdp1 inhibitor (HCT-116 cells; 20 µM): 575.3 (20) nM |
| CC(C)=CCC/C(C)=C\CSc1n[nH]c(C23CC4CC(CC(C4)C2)C3)n1 [20d, 5-(Adamantan-1-yl)-3-(((Z)-3,7-dimethylocta-2,6-dien-1-yl)thio)-1H-1,2,4-triazole] | 5.6 ± 0.6 | 5.4 | 20 ± 9 | 17 ± 5 | 31 ± 11 | HCT116 CC50 of topotecan with Tdp1 inhibitor (HCT-116 cells; 15 µM): 689.0 (15) nM |
| C=C(C)[C@@H]1CC=C(CSc2n[nH]c(C34CC5CC(CC(C5)C3)C4)n2)CC1 [20e, 5-(Adamantan-1-yl)-3-((((S)-4-(prop-1-en-2-yl)cyclohex-1-en-1-yl)methyl)thio)-1H-1,2,4-triazole] | 6.2 ± 2.2 |  | 15 ± 5 | 40 ± 4 | 24 ± 16 | HCT116 CC50 of topotecan with Tdp1 inhibitor (HCT-116 cells; 15 µM): 392.0 (15) nM |
| CC1(C)[C@H]2CC=C(CSc3n[nH]c(C45CC6CC(CC(C6)C4)C5)n3)[C@@H]1C2 [20f, 5-(Adamantan-1-yl)-3-((((1R,5S)-6,6-dimethylbicyclo[3.1.1]hept-2-en-2-yl)methyl)thio)-1H-1,2,4-triazole] | 7.5 ± 1.8 | 2.8 | 54 ± 5 | 46 ± 6 | 15 ± 2 | HCT116 CC50 of topotecan with Tdp1 inhibitor (HCT-116 cells; 25 µM): 715.0 (25) nM |
| CC[C@@]1(O)C(=O)OCc2c1cc1n(c2=O)Cc2cc3c(CN(C)C)c(O)ccc3nc2-1 [Topotecan, topotecan, reference compound] |  |  |  |  |  | CC50 (HeLa cells; Homo sapiens, HeLa, topotecan alone): 6 µM; CC50 (HCT-116 cells; Homo sapiens, HCT-116, topotecan alone, read-out: HCT116 CC50 of topotecan): 715 nM |
| CC(C)=CCCC(C)CC1N2CC3(C)CN1CC(C)(C2)C3=O (stereo not drawn) [compound 3] |  |  |  |  |  | IC50 (Tdp1 [5]): ~15000 nM |
| C[C@@H]1CC[C@@H]2[C@@H](C1)O[C@@H](c1ccc(NC(=O)c3cccc4ccccc34)s1)C[C@]2(C)O [compound 5] |  |  |  |  |  | IC50 (Tdp1 [5]): 2000 nM |
| C[C@@H]1CC[C@@H]2[C@@H](C1)O[C@@H](c1ccc(NC(=O)C34CC5CC(CC(C5)C3)C4)s1)C[C@]2(C)O [compound 13] |  |  |  |  |  | IC50 (Tdp1 [5]): 1200 nM |

Second part, led by results:

| IC50 (Tdp1 [3]) [µM] | SMILES | HeLa CC50 of topotecan with Tdp1 inhibitor (HeLa cells) [µM] | CC50 at 72 h [1] [µM] | CC50 at 72 h [2] [µM] | CC50 at 3 days [4] [µM] | further results |
| --- | --- | --- | --- | --- | --- | --- |
| 0.35 ± 0.05 | CC(C)CCCC(C)CC(=O)Nc1nnc(C23CC4CC(CC(C4)C2)C3)s1 (stereo not drawn) [25a, N-(5-(Adamantan-1-yl)-1,3,4-thiadiazol-2-yl)-3,7-dimethyloctanamide] | 4.9 | > 100 | > 100 | > 100 | HCT116 CC50 of topotecan with Tdp1 inhibitor (HCT-116 cells; 45 µM): 455.7 (45) nM |
| 0.45 ± 0.09 | CC1(C)[C@H]2CC=C(C(=O)Nc3nnc(C45CC6CC(CC(C6)C4)C5)s3)[C@@H]1C2 [25c, (1R,5S)-N-(5-(Adamantan-1-yl)-1,3,4-thiadiazol-2-yl)-6,6-dimethylbicyclo[3.1.1]hept-2-ene-2-carboxamide] | 3.6 | > 100 | > 100 | > 100 | HCT116 CC50 of topotecan with Tdp1 inhibitor (HCT-116 cells; 25 µM): 486.0 (25) nM |
| > 15 | CC1(C)[C@H]2CC=C(C(=O)NC34CC5CC(CC(C5)C3)C4)[C@@H]1C2 [26c, reference compound] |  |  |  |  |  |
| > 15 | CC(C)CCCC(C)CCNC(=O)C12CC3CC(CC(C3)C1)C2 (stereo not drawn) [28a, reference compound] |  |  |  |  |  |
| > 15 | CC1(C)[C@H]2CC=C(CCNC(=O)C34CC5CC(CC(C5)C3)C4)[C@@H]1C2 [28g, reference compound] |  |  |  |  |  |

Reference: article PMC8197275, “Novel Tdp1 Inhibitors Based on Adamantane Connected with Monoterpene Moieties via Heterocyclic Fragments” (Molecules, 2021)
